Laboratory results reported in PMC9127750, “Structure-based design of CDC42 effector interaction inhibitors for the treatment of cancer” (Cell reports, 2022).
Values joined by “and” are separate entries in the source; they are usually repeats but may differ in a detail not shown here. Identical values can stand only once.

System: WM3248 melanoma cells, 486 antibodies
Experiment: Reverse phase protein arrays (RPPA)
Assay type: cell-based, Human
Excerpt: Pellets were snap frozen in liquid nitrogen and shipped to MD Anderson Cancer Center core RPPA facility for RPPA analysis (Table S5). Three biological replicates for each sample were generated.
Nomenclatures on the RPPA heatmaps: name_of_antibody.species_of_antibody.status_of_antibody. V - antibody validated; C - validation of antibody in progress; Q - antibody nonspecific; E – under evaluation; antibodies raised in M - mouse, G - goat, R - rabbit, or T - rat.

## CN(C)c1cccc(Nc2cc(-c3ccccc3)nc(C3CCNCC3)n2)c1 [ARN22089, N1,N1-dimethyl-N3-(6-phenyl-2-(piperidin-4-yl)pyrimidin-4-yl)benzene-1,3-diamine]
Norm_5 Average
  Caspase.8.cleaved.R.C normalized signal: 0.982
  Caveolin.1.R.V normalized signal: 0.855
  Cdc6.R.V normalized signal: 0.979
  Cdc42.R.C normalized signal: 1.009
  Chk1.M.C normalized signal: 0.909
  Chk2.M.V normalized signal: 0.853
  Chk2_pT68.R.C normalized signal: 1.060
  Claudin.7.R.V normalized signal: 0.926
  Collagen.VI.R.V normalized signal: 1.116
  Complex.II.Subunit.M.V normalized signal: 0.975
  Cox2.R.C normalized signal: 1.135
  Cox.IV.R.V normalized signal: 1.022
  CtIP.R.V normalized signal: 0.975
  Cyclin.B1.R.V normalized signal: 0.972
  Cyclin.D3.M.V normalized signal: 0.904
  Cyclin.E1.R.V normalized signal: 0.936
  DAPK1_pS308.M.C normalized signal: 1.256
  DDB.1.R.V normalized signal: 1.059
  DDR1_pY513.R.C normalized signal: 0.981
  DM.K9.Histone.H3.M.V normalized signal: 0.933
  DNA.Ligase.IV.R.C normalized signal: 1.034
  DNA_POLG.R.V normalized signal: 0.987
  c.Jun_pS73.R.V normalized signal: 0.785
  c.Met_pY1234_Y1235.R.V normalized signal: 1.005
  c.Myc.R.C normalized signal: 1.002
  cdc2_pY15.R.C normalized signal: 1.020
  cdc25C.R.V normalized signal: 0.901
Norm_5 replicates
  C.Raf.R.C normalized signal: 0.928 and 0.922 and 1.015
  C.Raf_pS338.R.V normalized signal: 1.100 and 1.059 and 1.133
  CA9.R.C normalized signal: 0.890 and 0.944 and 0.999
  CD2.M.C normalized signal: 0.910 and 0.933 and 1.035
  CD4.R.V normalized signal: 1.047 and 1.004 and 1.101
  CD5.M.C normalized signal: 0.985 and 1.051
  CD20.R.C normalized signal: 0.992 and 1.004 and 0.765
  CD26.R.V normalized signal: 0.918 and 1.107 and 0.927
  CD29.M.V normalized signal: 0.891 and 0.950 and 1.049
  CD31.M.V normalized signal: 0.904 and 0.900 and 1.048
  CD38.R.C normalized signal: 0.928
  CD44.R.C normalized signal: 0.917 and 1.058 and 0.855
  CD45.M.V normalized signal: 0.930 and 1.021
  CD49b.M.V normalized signal: 0.968 (2×) and 1.000
  CD68.M.C normalized signal: 0.960 and 0.996 and 0.977
  CD74.M.V normalized signal: 0.856 and 0.898 and 1.027
  CD134.R.V normalized signal: 0.925 and 0.944
  CD171.M.V normalized signal: 0.619 and 0.917 and 0.812
  CDK1_pT14.R.C normalized signal: 0.861 and 1.206
  CDK9.R.V normalized signal: 0.898 and 0.959 and 1.009
  CDKN2A.R.C normalized signal: 0.913 and 0.846 and 1.064
  CDT1.R.V normalized signal: 0.876 and 0.937
  CENP.A.R.V normalized signal: 0.837 and 1.027
  CHD1L.R.V normalized signal: 0.984 and 0.980 and 1.062
  CIITA.R.C normalized signal: 0.906 and 1.032 and 0.908
  COG3.R.V normalized signal: 1.065 and 1.046 and 1.027
  CRABP1.R.C normalized signal: 0.859 and 0.948
  CRABP2.R.V normalized signal: 0.835 and 0.922
  CREB_pS133.R.C normalized signal: 0.973 and 1.049
  CSK.R.C normalized signal: 0.899 and 0.615
  Calnexin.R.V normalized signal: 0.886 and 0.995 and 1.007
  Caspase.3.cleaved.R.C normalized signal: 1.021 and 1.056
  Caspase.7.cleaved..R.C normalized signal: 0.975 and 1.120
  Caspase.8.M.Q normalized signal: 0.995 and 1.011
  Caspase.8.cleaved.R.C normalized signal: 0.959 and 0.968 and 1.018
  Caveolin.1.R.V normalized signal: 0.695 and 1.083 and 0.788
  Cdc6.R.V normalized signal: 1.013 and 0.837
  Cdc42.R.C normalized signal: 0.983 and 0.959
  Chk1.M.C normalized signal: 0.847 and 0.901 and 0.979
  Chk1_pS296.R.V normalized signal: 1.011 and 0.821 and 1.014
  Chk1_pS345.R.C normalized signal: 1.085 and 0.937
  Chk2.M.V normalized signal: 0.877 and 0.935 and 0.746
  Chk2_pT68.R.C normalized signal: 1.018 and 1.050 and 1.112
  Claudin.7.R.V normalized signal: 0.960 and 0.997 and 0.822
  Collagen.VI.R.V normalized signal: 1.125 and 1.077 and 1.148
  Complex.II.Subunit.M.V normalized signal: 0.952 and 1.023
  Connexin.43.R.C normalized signal: 1.236 and 0.956
  Coup.TFII.R.C normalized signal: 1.082 and 1.017
  Cox2.R.C normalized signal: 1.108 and 1.155 and 1.142
  Cox.IV.R.V normalized signal: 1.004 and 1.021
  Creb.R.C normalized signal: 1.017
  CtIP.R.V normalized signal: 1.022 and 0.990 and 0.914
  Cyclin.B1.R.V normalized signal: 0.618 and 1.059 and 1.239
  Cyclin.D1.R.C normalized signal: 0.917 and 1.018
  Cyclin.D3.M.V normalized signal: 0.934 and 0.919 and 0.861
  Cyclin.E1.R.V normalized signal: 0.930 and 0.904 and 0.974
  Cyclophilin.F.M.V normalized signal: 0.842 and 0.856
  D.a.Tubulin.R.V normalized signal: 1.019 and 1.128
  DAPK1_pS308.M.C normalized signal: 1.353 and 1.627 and 0.788
  DAPK2.R.C normalized signal: 1.191 and 1.026
  DDB.1.R.V normalized signal: 1.062 and 0.816 and 1.300
  DDR1.R.V normalized signal: 0.866 and 0.933 and 1.046
  DDR1_pY513.R.C normalized signal: 0.890 and 1.005 and 1.047
  DJ1.R.V normalized signal: 1.019 and 1.054
  DM.Histone.H3.R.V normalized signal: 0.978 and 1.119 and 1.017
  DM.K9.Histone.H3.M.V normalized signal: 0.882 and 0.936 and 0.982
  DNA.Ligase.IV.R.C normalized signal: 1.083 and 0.953
  DNA_POLG.R.V normalized signal: 1.009 and 1.004
  c.Jun_pS73.R.V normalized signal: 0.798 and 0.640 and 0.915
  c.Kit.R.V normalized signal: 1.128 and 0.954
  c.Met_pY1234_Y1235.R.V normalized signal: 0.983 and 1.008 and 1.024
  c.Myc.R.C normalized signal: 0.935 and 1.002
  cGAS.R.V normalized signal: 0.859 and 0.966 and 1.027
  cdc2_pY15.R.C normalized signal: 1.026 and 1.124
  cdc25C.R.V normalized signal: 0.919 and 0.928 and 0.857
Norm_10, normalized to Norm_0
  MYH11.R.C Average: 1.438
  Myosin.IIa.R.C Average: 1.143
  Myosin.IIa_pS1943.R.V Average: 1.250
  Myt1.R.C Average: 0.974
  N.Cadherin.R.V Average: 1.013
  N.Ras.M.V Average: 0.937
  NAPSIN.A.R.C Average: 1.005
  NDRG1_pT346.R.V Average: 1.345
  NDUFB4.R.V Average: 1.030
  NRF2.R.C Average: 0.980
  Notch1.R.V Average: 0.957
  Notch1.cleaved.R.V Average: 0.977
  Notch3.R.C Average: 1.054
  Oct.4.R.C Average: 1.008
  P.Cadherin.R.C Average: 1.101
  PAI.1.M.V Average: 0.931
  PAICS.R.C Average: 0.957
  PAK1.R.V Average: 0.905
  PAK4.R.V Average: 1.019
  PAK_pS474_S602_S560.R.V Average: 1.098
  PAK_pT423_T402.R.C Average: 1.015
  PAR.R.C Average: 1.104
  PARG.R.C Average: 1.019
  PARP.R.V Average: 1.149
  PAX6.R.V Average: 0.956
  PAX8.R.C Average: 1.011
  PCNA.M.C Average: 0.988
  PD.1.R.V Average: 0.998
  PD.L1.R.C Average: 0.960
  PDH.M.V Average: 0.958
  PDK1.R.V Average: 1.058
  PDK1_pS241.R.V Average: 0.934
  PEA.15.R.V Average: 1.020
  PEA.15_pS116.R.V Average: 0.996
  PERK.R.V Average: 1.061
  PHGDH.R.C Average: 0.964
  PHLPP.R.V Average: 1.190
  PI3K.p85.R.C Average: 1.002
  PI3K.p110.a.R.C Average: 0.864
  PI3K.p110.b.M.C Average: 0.990
  PKA.a.R.V Average: 0.941
  PKC.a.b.II_pT638_T641.R.V Average: 0.894
  PKC.b.II_pS660.R.V Average: 0.986
  PKCa.R.V Average: 1.017
  PKM2.R.C Average: 1.046
  PLC.gamma1.R.V Average: 1.192
  PLC.gamma1_pS1248.R.V Average: 1.153
  PLC.gamma2_pY759.R.V Average: 1.003
  PLK1.R.C Average: 0.886
  PMS2.R.V Average: 1.014
  PR.R.V Average: 0.988
  PRAS40.M.C Average: 1.046
  PRAS40_pT246.R.V Average: 1.016
  PRC1_pT481.R.C Average: 1.014
  Patched.R.C Average: 0.952
  Paxillin.R.C Average: 0.862
  Pdcd4.R.C Average: 0.987
  Porin.M.V Average: 1.053
  p21.R.C Average: 0.934
  p27_pT157.R.C Average: 1.162
  p27_pT198.R.V Average: 1.113
